According to patent publication US20080207537A1, “Topical Ungual Formulations” (priority 2005, published 2008):
Values belong to the molecule of their own block, whether it stands above or below them.

Legend:
[1] = Redox potential measurement against Ag/AgCl reference electrode; assay type: physicochemical; conditions: for Redox potential: urea-H2O2 with H2O2 content of 15%
[2] = pH of the agent solutions; assay type: physicochemical; conditions: for pH of solution prior to application: 5% concentration, solution applied to nail (FIG. 7)
[3] = Terbinafine diffusion study (ChubTur diffusion cell); assay type: in vitro ADME, human
Experimental: Human nail samples (full thickness) of ca. 3 mm diameter were positioned between the two halves of the specifically designed ChubTur™ diffusion cell and clamped together. The receptor compartment was filled with a previously sonicated suitable buffer system to ensure sink conditions and the cells were fixed on a perspex holder mounted on a magnetic stirrer in a water bath maintained at 32° C. The receptor chamber contents were continuously agitated by small PTFE-coated magnetic followers driven by a submersible magnetic stirrer. A known amount of formulation/drug solution was applied to the surface of the nail (infinite dose) and at regular time intervals samples of buffer were taken from the receptor compartment, replaced with fresh receptor medium and assayed for drug content using HPLC.

[4] = 14C mannitol nail penetration study (nail diffusion cell); assay type: in vitro ADME, human; conditions: single penetration enhancer
Experimental: The single penetration enhancers were made up in the appropriate solvent and spiked with ^14C mannitol (10 μl of the stock ^14C mannitol). When more than one penetration enhancer was applied to the nails, only the last penetration enhancer was spiked with ^14C mannitol prior to nail application. ^14C mannitol with no penetration enhancer was used as a control.
Pre-calibrated nail diffusion cells were assembled with full thickness human nail. The receiver fluid, which consisted of a 20% ethanol/water mixture, was put into the receiver well up to the etched mark on the side arm. A magnetic follower was inserted and the cells were then placed on a magnetic stirrer in a water bath maintained at 32° C. Cells were checked for leakage and air bubbles. […] This was to ensure that no cells contained any residual radioactivity and these readings were also taken as the background for each cell. […]
After taking the background reading (described in the section above) 50 μl of ^3H water (ca. 18000 dpm) was placed on top of the nail in the assembled nail diffusion cell, using a pre-calibrated Gilson pipette. […] This value was used to normalise each nail and, if values of radioactivity were considered too high, then cells were rejected due to leaks. […]

[5] = Urea-H2O2, H2O2 content 0.0025 % w/w, n = 3
[6] = Urea-H2O2, H2O2 content 0.005 % w/w, n = 3
[7] = Urea-H2O2, H2O2 content 0.025 % w/w, n = 3
[8] = Urea-H2O2, H2O2 content 0.05 % w/w, n = 3
[9] = Urea-H2O2, H2O2 content 0.5 % w/w, n = 3
[10] = Urea-H2O2, H2O2 content 5 % w/w, n = 3
[11] = Urea-H2O2, H2O2 content 10 % w/w, n = 3
[12] = Urea-H2O2, H2O2 content 15 % w/w, n = 3
[13] = Urea-H2O2, H2O2 content 16.25 % w/w, n = 3
[14] = Urea-H2O2, H2O2 content 17.5 % w/w, n = 3
[15] = DTT concentration 0.005 % w/w, n = 2
[16] = DTT concentration 0.01 % w/w, n = 2
[17] = DTT concentration 0.05 % w/w, n = 2
[18] = DTT concentration 0.1 % w/w, n = 2
[19] = DTT concentration 1 % w/w, n = 2
[20] = DTT concentration 5 % w/w, n = 2
[21] = DTT concentration 7.5 % w/w, n = 2
[22] = DTT concentration 10 % w/w, n = 2
[23] = TA concentration 0.001% w/w, n = 3
[24] = TA concentration 0.005% w/w, n = 3
[25] = TA concentration 0.01% w/w, n = 3
[26] = TA concentration 0.05% w/w, n = 3
[27] = TA concentration 0.1% w/w, n = 3
[28] = TA concentration 2.5% w/w, n = 3
[29] = TA concentration 7.5% w/w, n = 3
[30] = TA concentration 10% w/w, n = 3
[31] = TA concentration 20% w/w, n = 3
[32] = H2O2 concentration 0.005 % w/w, n = 3
[33] = H2O2 concentration 0.01 % w/w, n = 3
[34] = H2O2 concentration 0.05 % w/w, n = 3
[35] = H2O2 concentration 0.1 % w/w, n = 3
[36] = H2O2 concentration 1 % w/w, n = 3
[37] = H2O2 concentration 10 % w/w, n = 3
[38] = H2O2 concentration 20 % w/w, n = 3
[39] = H2O2 concentration 30 % w/w, n = 3
[40] = H2O2 concentration 32.5 % w/w, n = 3
[41] = H2O2 concentration 35 % w/w, n = 3

Structure (SMILES): O=S(=O)([O-])OOS(=O)(=O)[O-].[K+].[K+] [Potassium persulphate]
Mean Redox Potential ([1]; 0.5M concentration, n = 3): 402.5 mV | Mean pH ([2]; 0.5M concentration, n = 3): 2.83

Structure (SMILES): N.O=C(O)CS [Ammonium thioglycolate]
Mean Redox Potential ([1]; 0.5M concentration, n = 3): −235.9 mV | Mean pH ([2]; 0.5M concentration, n = 3): 6.29

Structure (SMILES): O=C([O-])CS.[Na+] [Sodium thioglycolate]
Mean Redox Potential ([1]; 0.5M concentration, n = 3): −281.7 mV | Mean pH ([2]; 0.5M concentration, n = 3): 6.90

Structure (SMILES): NC(N)=O.OO [Urea hydrogen Peroxide, Urea hydrogen peroxide addition compound]
Mean Redox Potential ([1]; 0.5M concentration, n = 3): 349.7 mV | Mean Redox Potential [1, 5]: 189.4 mV | Mean Redox Potential [1, 6]: 191.3 mV | Mean Redox Potential [1, 7]: 199.5 mV | Mean Redox Potential [1, 8]: 208.1 mV | Mean Redox Potential [1, 9]: 293.6 mV | Mean Redox Potential [1, 10]: 372.3 mV | Mean Redox Potential [1, 11]: 377.9 mV | Mean Redox Potential [1, 12]: 380.3 mV | Mean Redox Potential [1, 13]: 382.9 mV | Mean Redox Potential [1, 14]: 382.3 mV | Redox potential ([1]; approximate pH 2 (adjusted using HCl and NaOH), n = 3): 459.8 mV | Redox potential ([1]; approximate pH 4 (adjusted using HCl and NaOH), n = 3): 334.1 mV | Redox potential ([1]; approximate pH 6 (adjusted using HCl and NaOH), n = 3): 284.0 mV | Redox potential ([1]; approximate pH 8 (adjusted using HCl and NaOH), n = 3): 194.2 mV | Redox potential ([1]; approximate pH 10 (adjusted using HCl and NaOH), n = 3): 16.1 mV | Mean pH ([2]; 0.5M concentration, n = 3): 2.72 | Mean pH [2, 5]: 6.07 | Mean pH [2, 6]: 6.17 | Mean pH [2, 7]: 6.56 | Mean pH [2, 8]: 6.81 | Mean pH [2, 9]: 5.31 | Mean pH [2, 10]: 5.10 | Mean pH [2, 11]: 4.23 | Mean pH [2, 12]: 4.04 | Mean pH [2, 13]: 3.87 | Mean pH [2, 14]: 3.33

Structure (SMILES): Cl.N[C@@H](CS)C(=O)O.O [Cysteine, L-Cysteine hydrochloride hydrate]
Mean Redox Potential ([1]; 0.5M concentration, n = 3): −79.3 mV

Structure (SMILES): O=C(O)CS [Thioglycolic acid]
Mean Redox Potential ([1]; 0.5M concentration, n = 3): −132.8 mV | Mean Redox Potential ([1]; 5% TA solution, approximate pH 2 (adjusted using NaOH), n = 3): −70.4 | Mean Redox Potential ([1]; 5% TA solution, approximate pH 3 (adjusted using NaOH), n = 3): −133.1 | Mean Redox Potential ([1]; 5% TA solution, approximate pH 4 (adjusted using NaOH), n = 3): −166.7 | Mean Redox Potential ([1]; 5% TA solution, approximate pH 5 (adjusted using NaOH), n = 3): −179.5 | Mean Redox Potential ([1]; 5% TA solution, approximate pH 6 (adjusted using NaOH), n = 3): −192.9 | Mean Redox Potential ([1]; 5% TA solution, approximate pH 8 (adjusted using NaOH), n = 3): −272.3 | Mean Redox Potential ([1]; 5% TA solution, approximate pH 10 (adjusted using NaOH), n = 3): −386.5 | Mean Redox Potential ([1]; 5% TA solution, approximate pH 11 (adjusted using NaOH), n = 3): −433.8 | Mean Redox Potential [1, 23]: −47.7 | Mean Redox Potential [1, 24]: −56.6 | Mean Redox Potential [1, 25]: −67.5 | Mean Redox Potential [1, 26]: −85.6 | Mean Redox Potential [1, 27]: −97.4 | Mean Redox Potential ([1]; TA concentration 1% w/w, n = 3): −119.8 | Mean Redox Potential [1, 28]: −126.5 | Mean Redox Potential ([1]; TA concentration 5% w/w, n = 3): −131.5 | Mean Redox Potential [1, 29]: −132.7 | Mean Redox Potential [1, 30]: −132.8 | Mean Redox Potential [1, 31]: −128.7 | permeation of 14C mannitol through full thickness human nail ([4]; Saturated TA (50%), rank among the enhancers (FIG. 2)): best penetration enhancer of mannitol | permeation of 14C mannitol through full thickness human nail ([4]; TA 5%, compared to DTT (FIG. 2)): drop below that of the DTT | Mean pH ([2]; 0.5M concentration, n = 3): 2.13 | pH of solution prior to application [2]: 2.12 | Mean pH [2, 23]: 2.97 | Mean pH [2, 24]: 3.12 | Mean pH [2, 25]: 3.05 | Mean pH [2, 26]: 2.53 | Mean pH [2, 27]: 2.66 | Mean pH ([2]; TA concentration 1% w/w, n = 3): 2.23 | Mean pH [2, 28]: 1.71 | Mean pH ([2]; TA concentration 5% w/w, n = 3): 1.85 | Mean pH [2, 29]: 1.76 | Mean pH [2, 30]: 1.83 | Mean pH [2, 31]: 1.61

Structure (SMILES): O=C([O-])CS.O=C([O-])CS.[Ca+2] [Calcium thioglycolate]
Mean Redox Potential ([1]; 0.5M concentration, n = 3): −531.3 mV | Mean pH ([2]; 0.5M concentration, n = 3): 11.74 | pH of solution prior to application [2]: 11.43

Structure (SMILES): O=C(O)C(=O)O [Oxalic acid]
Mean Redox Potential ([1]; 0.5M concentration, n = 3): 254.8 mV | Mean pH ([2]; 0.5M concentration, n = 3): 1.33

The next lines start with the values.

Mean Redox Potential ([1]; 0.5M concentration, n = 3): 67.2 mV | Mean pH ([2]; 0.5M concentration, n = 3): 5.91
Structure (SMILES): CC12CCC(CC1)C(C)(C)O2 [Cineol]

Mean Redox Potential ([1]; 0.5M concentration, n = 3): 8.6 mV | Mean pH ([2]; 0.5M concentration, n = 3): 5.67
Structure (SMILES): Oc1cccc(O)c1 [Resorcinol]

Mean Redox Potential ([1]; 0.5M concentration, n = 3): 247.7 mV | Mean pH ([2]; 0.5M concentration, n = 3): 2.03
Structure (SMILES): O=C(O)CO [Glycolic acid]

amount of drug penetrated the nail ([3]; nails soaked in 50:50 ethanol/water (control) for 20 h before drug, after 214 h): 44±13 μg per cm^2 | amount of drug penetrating the nail ([3]; pre-treatment with TA then urea-H2O2 for 30 min): less than 10 μg per cm^2 | amount of drug penetrating the nail ([3]; pre-treatment with TA then urea-H2O2 for 1 h): less than 10 μg per cm^2 | amount of terbinafine penetrating the human nail ([3]; pre-treatment with TA then urea-H2O2 for up to 20 h each, after 315 h): 3329±1842 μg per cm^2 | amount of drug penetrating the nail ([3]; pre-treatment with thioglycolic acid alone): 861±135 μg per cm^2 | amount of drug penetrating the nail ([3]; pre-treatment with urea-hydrogen peroxide alone): 47±33 μg per cm^2 | effect of pre-treatment on the amount of drug penetrating the nail ([3]; pre-treatment with urea-hydrogen peroxide versus control, p>0.05, ANOVA): no significant effect | amount of drug penetrating the nail ([3]; thioglycolic acid and urea-H2O2 applied sequentially prior to terbinafine, after 219 h): 2308±1332 μg per cm^2
Structure (SMILES): CN(C/C=C/C#CC(C)(C)C)Cc1cccc2ccccc12 [terbinafine]

Mean Redox Potential ([1]; 0.5M concentration, n = 3): −241.0 mV | Mean Redox Potential [1, 15]: −122.7 | Mean Redox Potential [1, 16]: −134.9 | Mean Redox Potential [1, 17]: −169.19 | Mean Redox Potential [1, 18]: −189.65 | Mean Redox Potential [1, 19]: −185.75 | Mean Redox Potential [1, 20]: −201.25 | Mean Redox Potential [1, 21]: −209.65 | Mean Redox Potential [1, 22]: −193.1 | Mean pH ([2]; 0.5M concentration, n = 3): 2.64 | Mean pH [2, 15]: 8.07 | Mean pH [2, 16]: 8.00 | Mean pH [2, 17]: 7.80 | Mean pH [2, 18]: 7.59 | Mean pH [2, 19]: 7.01 | Mean pH [2, 20]: 6.20 | Mean pH [2, 21]: 6.24 | Mean pH [2, 22]: 5.69
Structure (SMILES): O[C@@H](CS)[C@@H](O)CS (racemic) [DTT, 1,4-dithio-DL-threitol]

Mean Redox Potential ([1]; 0.5M concentration, n = 3): 114.1 mV | Mean pH ([2]; 0.5M concentration, n = 3): 3.54
Structure (SMILES): O=C(O)/C=C/c1ccc(O)cc1 [p-coumaric acid]

Mean Redox Potential ([1]; 0.5M concentration, n = 3): 277.3 mV | Mean Redox Potential [1, 32]: 142.3 | Mean Redox Potential [1, 33]: 153.0 | Mean Redox Potential [1, 34]: 200.4 | Mean Redox Potential [1, 35]: 193.5 | Mean Redox Potential [1, 36]: 231.6 | Mean Redox Potential [1, 37]: 357.2 | Mean Redox Potential [1, 38]: 402.8 | Mean Redox Potential [1, 39]: 430.4 | Mean Redox Potential [1, 40]: 437.9 | Mean Redox Potential [1, 41]: 444.5 | Mean pH ([2]; 0.5M concentration, n = 3): 6.21 | Mean pH [2, 32]: 7.56 | Mean pH [2, 33]: 7.46 | Mean pH [2, 34]: 6.78 | Mean pH [2, 35]: 6.71 | Mean pH [2, 36]: 6.17 | Mean pH [2, 37]: 3.79 | Mean pH [2, 38]: 3.16 | Mean pH [2, 39]: 2.64 | Mean pH [2, 40]: 2.54 | Mean pH [2, 41]: 2.55
Structure (SMILES): OO [Hydrogen peroxide]

Mean Redox Potential ([1]; 0.5M concentration, n = 3): 53.4 mV | Mean pH ([2]; 0.5M concentration, n = 3): 6.28
Structure (SMILES): O=c1cc[nH]c(=S)[nH]1 [Thiouracil]
